The structures appear in SMILES notation. Read-outs that look alike come from different tables or passages of the source.

The target of assay [1] is T1, human serotonin 5-HT6 receptor (Homo sapiens, UniProt P50406).
T1 construct: expressed in transfected cells; host or cells: HeLa/E6-7
Put plainly: Radioligand binding assay, human 5-HT6 receptors ([3H]LSD). As for the experimental part: (§1) The human 5-HT2a and 5-HT2b screens were conducted according to Bonhaus, D. W. et al. Br. J. Pharmacol. 1995, 115, 622. The human 5-HT2c screen was conducted according to Wolf, W. A. et al. J. Neurochem. 1997, 69, 1449. The human 5-HT6 screen was conducted according to Monsma, F. J. et al. Mol. Pharmacol. 1993, 43, 320.
This assay measures binding of [^3H]LSD (lysergic acid diethylamide) to human serotonin 5-HT6 receptors. HeLa/E6–7 cells stably transfected with a plasmid encoding the human serotonin 5-HT6 receptor were used to prepare membranes in modified Tris-HCl pH 7.4 buffer using standard techniques. A 30 μg aliquot of membrane was incubated with 1.5 nM [^3H]LSD for 120 minutes at 37° C. Non-specific binding was estimated in the presence of 5 μM 5-HT. Membranes were filtered and washed 3 times and the filters were counted to determine [^3H]LSD specifically bound. See Monsma, Jr., F. J. et al. “Cloning and expression of a novel serotonin receptor with high affinity for tricyclic psychotropic drugs” Mol. Pharmacol. 43: 320–327, 1993.
(§2) The human 5-HT2a and 5-HT2b screens were conducted according to Bonhaus, D. W. et al. Br. J. Pharmacol. 1995, 115, 622. The human […], W. A. et al. J. Neurochem. 1997, 69, 1449. The human 5-HT6 screen was conducted according to Monsama, F. J. et al. Mol. Pharmacol. 1993, 43, 320. The assay to human D3 receptors was conducted according to Sokoloff, P. et al. Nature 1990, 347;146. The human dopamine transporter assay was conducted according to Gu, H. et. al. J. Biol. Chem. 1994, 269 (10);7124; and Giros, B. et al. Trends. Pharmacol. Sci. 1993, 14: 43. The human muscarinic M1–M4 screens were conducted according to Buckley N. J. et al. Mol. Pharmacol. 1989, 35:469.

Assay [2] addresses T2, human dopamine D3 receptor (Homo sapiens, UniProt P35462).
T2 construct: expressed in transfected cells; host or cells: CHO
Put plainly: Radioligand binding assay, human dopamine D3 receptors ([3H]Spiperone). The procedure: The assay for binding to human D3 receptors was conducted according to Sokoloff, P. et al. Nature 1990, 347, 146.
CHO cells stably transfected with a plasmid encoding the human dopamine D3 receptor were used to prepare membranes in modified Tris-HCl pH 7.4 buffer using standard techniques. […] Non-specific binding was estimated in the presence of 25 μM S-(−)-sulpiride. […] See Sokoloff, P. et al. “Molecular cloning and characterization of a novel dopamine receptor (D3) as a target for neuroleptics” Nature 347: 146–151, 1990.
as §2

In assay [3] the target is T3, human dopamine transporter (Homo sapiens, UniProt Q01959).
T3 construct: expressed in transfected cells; host or cells: CHO-K1
T3 sequence (Q01959 whole entry): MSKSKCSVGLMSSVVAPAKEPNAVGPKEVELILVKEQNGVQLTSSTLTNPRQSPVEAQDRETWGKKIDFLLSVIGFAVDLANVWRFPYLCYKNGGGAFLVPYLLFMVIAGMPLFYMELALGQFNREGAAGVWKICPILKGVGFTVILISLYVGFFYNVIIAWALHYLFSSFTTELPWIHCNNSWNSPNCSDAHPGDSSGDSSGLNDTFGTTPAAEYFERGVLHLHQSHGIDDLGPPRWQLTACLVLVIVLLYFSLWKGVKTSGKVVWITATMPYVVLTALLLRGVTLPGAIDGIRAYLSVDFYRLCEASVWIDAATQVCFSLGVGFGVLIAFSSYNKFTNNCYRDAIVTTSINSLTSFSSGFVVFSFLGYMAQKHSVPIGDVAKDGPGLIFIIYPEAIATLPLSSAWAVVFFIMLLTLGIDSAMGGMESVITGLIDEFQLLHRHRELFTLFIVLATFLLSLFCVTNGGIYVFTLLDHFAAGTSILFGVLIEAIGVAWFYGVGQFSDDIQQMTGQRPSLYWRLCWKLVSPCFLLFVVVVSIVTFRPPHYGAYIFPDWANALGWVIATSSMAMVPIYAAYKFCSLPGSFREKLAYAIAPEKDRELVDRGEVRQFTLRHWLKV
Put plainly: Binding to human dopamine transporter ([125I]RTI-55). The procedure:
CHO-K1 cell membranes stably transfected with a plasmid encoding the human dopamine transporter were prepared in modified Tris-HCl pH 7.4 buffer using standard techniques. […] Non-specific binding was estimated in the presence of 10 μM nomifensine. […] Trends. […]

The target in assay [4] is T4, human serotonin 5-HT2A receptor (Homo sapiens, UniProt P28223).
T4 construct: expressed in transfected cells; host or cells: CHO-K1
T4 sequence (P28223 whole entry): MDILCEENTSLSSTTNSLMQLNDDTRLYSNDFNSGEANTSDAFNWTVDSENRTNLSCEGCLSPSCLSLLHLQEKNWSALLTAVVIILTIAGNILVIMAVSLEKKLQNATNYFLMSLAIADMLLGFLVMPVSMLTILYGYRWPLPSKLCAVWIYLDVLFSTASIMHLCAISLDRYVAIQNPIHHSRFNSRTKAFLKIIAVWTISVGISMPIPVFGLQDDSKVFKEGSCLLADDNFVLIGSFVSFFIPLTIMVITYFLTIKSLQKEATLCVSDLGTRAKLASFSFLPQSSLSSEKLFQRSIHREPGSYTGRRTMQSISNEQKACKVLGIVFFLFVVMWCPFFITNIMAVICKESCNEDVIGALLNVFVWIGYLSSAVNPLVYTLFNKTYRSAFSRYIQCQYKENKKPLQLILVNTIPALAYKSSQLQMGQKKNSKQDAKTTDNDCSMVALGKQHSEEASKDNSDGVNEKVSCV
Put plainly: Radioligand binding assay, human 5-HT2A receptors ([3H]Ketanserin). As for the experimental part:
as §1
CHO-K1 cells stably transfected with a plasmid encoding the human serotonin 5-HT2A receptor were used to prepare membranes in modified Tris-HCl pH 7.7 buffer using standard techniques. […] Non-specific binding was estimated in the presence of 1 μM mianserin. […] See Bonhaus, D. W. et al. “The pharmacology and distribution of human 5-hydroxytryptamine2B (5-HT2B) receptor gene products: comparison with 5-HT2A and 5-HT2C receptors” Brit. J. Pharmacol. 115: 622–628, 1995; and Saucier, C and Albert, P. R. “Identification of an endogenous 5-hydroxytryptamine2A receptor in NIH-3T3 cells: agonist-induced down-regulation involves decreases in receptor RNA and number” J. Neurochem. 68: 1998–2011, 1997.
as §2

Assay [5] deals with T5, human serotonin 5-HT2B receptor (Homo sapiens, UniProt P41595).
T5 construct: expressed in transfected cells; host or cells: CHO-K1
T5 sequence (P41595 whole entry): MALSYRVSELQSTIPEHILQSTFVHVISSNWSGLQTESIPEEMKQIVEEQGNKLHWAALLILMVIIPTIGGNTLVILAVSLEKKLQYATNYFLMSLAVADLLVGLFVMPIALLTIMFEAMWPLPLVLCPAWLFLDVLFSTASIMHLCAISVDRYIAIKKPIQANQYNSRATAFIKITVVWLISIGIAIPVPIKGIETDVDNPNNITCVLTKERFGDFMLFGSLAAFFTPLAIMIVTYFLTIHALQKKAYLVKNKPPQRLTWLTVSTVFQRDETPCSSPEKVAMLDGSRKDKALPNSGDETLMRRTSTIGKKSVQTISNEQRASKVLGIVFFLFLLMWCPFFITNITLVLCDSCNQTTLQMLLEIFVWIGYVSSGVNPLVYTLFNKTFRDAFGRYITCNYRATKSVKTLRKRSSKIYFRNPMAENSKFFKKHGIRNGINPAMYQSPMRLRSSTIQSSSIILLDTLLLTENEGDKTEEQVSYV
Put plainly: Radioligand binding assay, human 5-HT2B receptors ([3H]LSD). As for the experimental part: This assay measures binding of [^3H]LSD to human serotonin 5-HT2B receptors. CHO-K1 cells stably transfected with a plasmid encoding the human serotonin 5-HT2B receptor were used to prepare membranes in modified Tris-HCl pH 7.4 buffer using standard techniques. […] Non-specific binding was estimated in the presence of 10 μM serotonin. Membranes were filtered and washed 3 times and the filters were counted to determine [^3H]LSD specifically bound. See Bonhaus, D. W. et al. “The pharmacology and distribution of human 5-hydroxytryptamine2B (5-HT2B) receptor gene products: comparison with 5-HT2A and 5-HT2C receptors” Brit.
The human 5-HT2b screen was conducted according to Wolf, W. A. et al. J. Neurochem.

Assay [6] concerns the target T6, human serotonin 5-HT2C receptor (Homo sapiens, UniProt P28335).
T6 construct: expressed in transfected cells; host or cells: CHO-K1
T6 sequence (P28335 33-458): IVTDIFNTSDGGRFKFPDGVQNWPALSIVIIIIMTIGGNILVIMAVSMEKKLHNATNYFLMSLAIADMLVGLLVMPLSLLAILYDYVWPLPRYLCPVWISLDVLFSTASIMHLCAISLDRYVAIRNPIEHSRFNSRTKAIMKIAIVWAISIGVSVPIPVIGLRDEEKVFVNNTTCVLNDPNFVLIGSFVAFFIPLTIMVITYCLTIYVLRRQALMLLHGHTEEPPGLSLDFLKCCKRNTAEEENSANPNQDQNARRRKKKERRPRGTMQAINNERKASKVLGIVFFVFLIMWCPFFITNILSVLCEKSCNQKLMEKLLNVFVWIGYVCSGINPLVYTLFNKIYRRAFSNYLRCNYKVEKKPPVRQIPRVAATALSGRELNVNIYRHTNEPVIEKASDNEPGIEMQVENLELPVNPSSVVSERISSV
Nature of the assay: Radioligand binding assay, human 5-HT2C receptors ([3H]Mesulergine). As for the experimental part: as §1
CHO-K1 cells stably transfected with a plasmid encoding the human serotonin 5-HT2C receptor were used to prepare membranes in modified Tris-HCl pH 7.7 buffer using standard techniques. […] Non-specific binding was estimated in the presence of 1 μM mianserin. […] See Wolf, W. A. and Schutz, J. S. “The serotonin 5-HT2C receptor is a prominent serotonin receptor in basal ganglia: evidence from functional studies on serotonin-mediated phosphoinositide hydrolysis” J. Neurochem. 69: 1449–1458, 1997.
as §2

Setting [7] is: human, Example 100 table, read-out: IC50 (nM) 5-HT6.
Setting [8] is: human, Example 100 table, read-out: IC50 (nM) D3.
The mark [9] stands for this setting: human, Example 100 table, read-out: IC50 (nM) DAT.
The mark [10] stands for this setting: human 5-HT2a, Example 16 table, read-out: IC50 (nM) 5-HT2a.
[11] abbreviates: human 5-HT2b, Example 16 table, read-out: IC50 (nM) 5-HT2b.
Where [12] appears, read: human 5-HT2c, Example 16 table, read-out: IC50 (nM) 5-HT2c.
[13] abbreviates: human 5-HT6, Example 16 table, read-out: IC50 (nM) 5-HT6.
[14] abbreviates: Example 20 table, read-out: IC50 (nM) Against Human D3 Receptors.
The mark [15] stands for this setting: human, Example 101 table, read-out: IC50 (nM) DAT.

T2 sequence (P35462 whole entry): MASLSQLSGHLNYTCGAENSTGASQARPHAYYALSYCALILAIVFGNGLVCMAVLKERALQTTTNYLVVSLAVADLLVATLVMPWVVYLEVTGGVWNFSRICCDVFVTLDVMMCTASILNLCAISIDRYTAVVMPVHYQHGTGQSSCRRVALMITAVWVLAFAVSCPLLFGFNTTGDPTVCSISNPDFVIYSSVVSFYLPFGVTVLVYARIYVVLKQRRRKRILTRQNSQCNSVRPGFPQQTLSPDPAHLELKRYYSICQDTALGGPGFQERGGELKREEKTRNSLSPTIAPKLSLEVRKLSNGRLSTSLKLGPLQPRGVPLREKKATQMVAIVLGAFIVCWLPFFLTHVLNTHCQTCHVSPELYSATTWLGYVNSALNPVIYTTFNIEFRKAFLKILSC
T1 sequence (P50406 whole entry): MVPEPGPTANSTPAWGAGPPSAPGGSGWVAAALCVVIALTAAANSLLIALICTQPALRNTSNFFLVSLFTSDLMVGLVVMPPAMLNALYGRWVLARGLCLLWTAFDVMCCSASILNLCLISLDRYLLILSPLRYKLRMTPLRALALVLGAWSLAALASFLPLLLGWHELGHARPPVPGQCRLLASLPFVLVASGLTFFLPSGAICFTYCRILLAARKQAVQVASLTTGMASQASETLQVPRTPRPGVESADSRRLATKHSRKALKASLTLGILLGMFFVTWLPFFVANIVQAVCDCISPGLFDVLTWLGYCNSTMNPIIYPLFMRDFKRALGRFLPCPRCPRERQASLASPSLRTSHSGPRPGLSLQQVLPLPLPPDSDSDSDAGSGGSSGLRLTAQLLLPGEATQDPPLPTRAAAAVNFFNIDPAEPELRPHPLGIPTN

Consider `CN1CCCC1CCNc1nc(C2(c3ccc(Cl)cc3)CCOCC2)cs1` (racemic) [Compound 125, {4-[4-(4-chlorophenyl)-tetrahydropyran-4-yl]-thiazol-2-yl}-[2-(1-methyl-pyrrolidin-2-yl)-ethyl]-amine], for which the IC50 in assay [1] (setting [7]), in assay [2] (setting [8]) and in assay [3] (setting [9]) was more than 1000 nM each time.
`Clc1ccc(C2(c3csc(NCCN4CCOCC4)n3)CCC2)cc1` [Compound 22, {4-[1-(4-chlorophenyl)-cyclobutyl]thiazol-2-yl}-(2-morpholin-4-yl-ethyl)amine]: the IC50 in assay [4] (setting [10]), in assay [5] (setting [11]), in assay [6] (setting [12]), in assay [1] (setting [13]), in assay [2] (setting [14]) and in assay [3] (setting [15]) was more than 1000 nM throughout.
Turning to `Clc1ccc(C2(c3csc(NCCN4CCCCC4)n3)CCC2)cc1` [Compound 23, {4-[1-(4-chlorophenyl)-cyclobutyl]thiazol-2-yl}-(2-piperidin-1-yl-ethyl)amine], the IC50 (commonly the concentration at which inhibition is half-maximal) in assay [4] (setting [10]) was less than 1000 nM; in assay [5] (setting [11]), less than 1000 nM; in assay [6] (setting [12]) it was less than 100 nM; in assay [1] (setting [13]), more than 1000 nM; in assay [2] (setting [14]), less than 1000 nM; in assay [3] (setting [15]), less than 500 nM.
For the compound `CN1CCCC1CCNc1nc(C2(c3ccc(Cl)cc3)CCC2)cs1` (centres unmarked) [Compound 24, {4-[1-(4-chlorophenyl)-cyclobutyl]thiazol-2-yl}-[2-(1-methylpyrrolidin-2-yl)ethyl]amine], the IC50 in assay [4] (setting [10]) is less than 100 nM; in assay [5] (setting [11]), less than 100 nM; in assay [6] (setting [12]) it was less than 10 nM; in assay [1] (setting [13]) it was less than 1000 nM; in assay [2] (setting [14]) it was less than 1000 nM; in assay [3] (setting [15]), less than 500 nM.
On to `CCN1CCCC1CNc1nc(C2(c3ccc(Cl)cc3)CCC2)cs1` (centres unmarked) [Compound 25, {4-[1-(4-chlorophenyl)cyclobutyl]thiazol-2-yl}-(1-ethylpyrrolidin-2-ylmethyl)amine], for which the IC50 is less than 1000 nM in assay [4] (setting [10]); less than 1000 nM in assay [5] (setting [11]); less than 1000 nM in assay [6] (setting [12]); less than 1000 nM in assay [1] (setting [13]); less than 1000 nM in assay [2] (setting [14]); more than 1000 nM in assay [3] (setting [15]).
Take `CN1CCCC1CCNc1nc(C2(c3ccc(Cl)cc3)CCC2)no1` (centres unmarked) [Compound 26, {3-[1-(4-Chlorophenyl)cyclobutyl]-[1,2,4]oxadiazol-5-yl}-[2-(1-methyl-pyrrolidin-2-yl)-ethyl]-amine]: the 50% inhibitory concentration (IC50) in assay [4] (IC50 (nM) 5-HT2a, human 5-HT2a, Example 16 table) is more than 1000 nM; in assay [5] it was more than 1000 nM; in assay [6] (IC50 (nM) 5-HT2c, human 5-HT2c, Example 16 table) it was less than 1000 nM; in assay [1] (IC50 (nM) 5-HT6, human 5-HT6, Example 16 table), more than 1000 nM; in assay [2] (IC50 (nM) Against Human D3 Receptors, Example 20 table), more than 1000 nM; in assay [3], less than 1000 nM.
Regarding `CN1CCN(c2nc(C3(c4ccc(Cl)cc4)CCC3)cs2)CC1` [Compound 27, 1-{4-[1-(4-chlorophenyl)cyclobutyl]thiazol-2-yl}-4-methylpiperazine], the IC50 in assay [4] (setting [10]) is less than 1000 nM; in assay [5] (setting [11]), less than 1000 nM; in assay [6] (setting [12]), less than 1000 nM; in assay [1] (setting [13]), less than 1000 nM; in assay [2] (setting [14]) it was less than 1000 nM; in assay [3] (setting [15]), less than 500 nM.
Regarding `Clc1ccc(C2(c3csc(NCCN4CCOCC4)n3)CCCC2)cc1` [Compound 99], the values for the IC50 in assay [1] (setting [7]), in assay [2] (setting [8]) and in assay [3] (setting [9]) were less than 1000 nM, more than 1000 nM and less than 1000 nM, respectively.
As for `CN1CCCC1CCNc1nc(C2(c3ccccc3F)CCCC2)cs1` (centres unmarked) [Compound 111], the IC50 was less than 1000 nM in assay [1] (setting [7]), less than 1000 nM in assay [2] (setting [8]) and more than 1000 nM in assay [3] (setting [9]).
As for `CN1CCC(N(C)c2nc(C3(c4ccc(Cl)cc4)CCCC3)cs2)C1` (centres unmarked) [Compound 116], the IC50 in assay [1] (setting [7]) is less than 10 nM; in assay [2] (setting [8]) it was more than 1000 nM; in assay [3] (setting [9]), less than 1000 nM.
As for `Fc1ccccc1C1(c2csc(N3CCNCC3)n2)CCCC1` [Compound 121], the IC50 is less than 100 nM in assay [1] (setting [7]), more than 1000 nM in assay [2] (setting [8]) and more than 1000 nM in assay [3] (setting [9]).
Turning to `Fc1ccccc1C1(c2csc(N3CCN(CC4CC4)CC3)n2)CCCC1` [Compound 122], the IC50 in assay [1] (setting [7]), in assay [2] (setting [8]) and in assay [3] (setting [9]) was less than 1000 nM throughout.
Turning to `CNC1CCN(c2nc(C3(c4ccccc4F)CCCCC3)cs2)C1` (centres unmarked) [Compound 134, (1-{4-[1-(2-fluorophenyl)-cyclohexyl]-thiazol-2-yl}-pyrrolidin-3-yl)-methyl-amine], the figures for the IC50 in assay [1] (setting [7]), in assay [2] (setting [8]) and in assay [3] (setting [9]) were less than 1000 nM, more than 1000 nM and more than 1000 nM, respectively.
`CN1CCCN(c2nc(C3(c4ccccc4F)CCCC3)cs2)CC1` [Compound 139]: the IC50 in assay [4] (human, Example 100 table, read-out: IC50 (nM) 5-HT2A) was less than 1000 nM; in assay [5] (human, Example 100 table, read-out: IC50 (nM) 5-HT2B) it was less than 100 nM; in assay [6] (human, Example 100 table, read-out: IC50 (nM) 5-HT2C), less than 100 nM; in assay [1] (setting [7]), less than 100 nM; in assay [2] (setting [8]) it was less than 1000 nM.
